# Data as given in US9409905B2, “Antibacterial compounds and methods for use” (PTC THERAPEUTICS, INC., priority 2011, dated 2016).
# Legend:
# [1] = system: Pseudomonas aeruginosa (P. aeruginosa) 27853; test: Antibacterial activity, MIC (Table 5); type: cell-based; conditions: P. aeruginosa 27853, read-out: MIC, 27853
# Procedure, shortened: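 Activity was measured by microbroth dilution. The MIC, in μg/mL, is the lowest drug concentration that prevents macroscopically visible growth under the test conditions.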
# E. coli LZ3111 = test: Antibacterial activity, MIC, quinolone resistant strain (Table 2); type: cell-based; conditions: Escherichia coli, LZ3111, read-out: MIC LZ3111
# Procedure, shortened: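 Microbroth dilution method; MIC (μg/mL) is the lowest drug concentration preventing macroscopically visible growth under test conditions.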
# E. coli 25922 = test: Antibacterial activity, microbroth dilution MIC (Table 1); type: cell-based, Escherichia coli; conditions: Escherichia coli; microbroth dilution; control Gram-negative E. coli 25922 strain; read-out: MIC, 25922
# Procedure, shortened: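 Growth inhibition by microbroth dilution. MIC = lowest μg/mL with no visible growth. Strain 25922 is the control Gram-negative; BAS849 is hypersensitive.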
# [2] = system: Escherichia coli (E. coli) BAS849; test: as above; type: cell-based; conditions: microbroth dilution, super sensitive Gram-negative E. coli BAS849, read-out: MIC, BAS849
# Procedure, shortened: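 Each strain is exposed to test compound in a microbroth dilution series; visible growth is scored macroscopically, and the lowest growth-free concentration is recorded as MIC in μg/mL.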
# [3] = system: Staphylococcus aureus (S. aureus) 29213; test: as above; type: cell-based; conditions: microbroth dilution, Gram-positive S. aureus 29213, read-out: MIC, 29213
# Procedure, shortened: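 Potency is reported as minimum inhibitory concentration in μg/mL, determined by broth microdilution as the lowest level of compound that stops growth visible to the eye.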
# E. coli ELZ4000 = test: Antibacterial activity, MIC, multi-drug resistant clinical isolate (Table 3); type: cell-based; conditions: Escherichia coli, ELZ4000, read-out: MIC ELZ4000
# Source text: (§1) The antibacterial activity from a microbroth dilution method may be presented as the minimum inhibitory concentration (MIC in μg/mL). The MIC value is the lowest concentration of drug which prevents macroscopically visible growth under test conditions.
# (§2) Antibacterial activity of test compounds against E. coli ELZ4000 and E. coli ELZ4251 multi-drug resistant clinical isolates is shown in Table 3.
# E. coli ELZ4251 = test: as above; type: cell-based; conditions: Escherichia coli
# Source text: as §1, §2
# [4] = system: Klebsiella pneumoniae (K. pneumoniae) 35657; test: Antibacterial activity, MIC (Table 4); type: cell-based; conditions: K. pneumoniae 35657, read-out: MIC, 35657
# Procedure, shortened: (§3)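 The resistant panel comprises multi-drug resistant clinical isolates. All strains were tested by microbroth dilution, with the MIC in μg/mL taken as the lowest concentration that prevented macroscopically visible growth.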
# [5] = system: Acinetobacter baumannii (A. baumannii) BAA747; test: Antibacterial activity, MIC (Table 4); type: cell-based; conditions: A. baumannii BAA747, read-out: MIC, BAA747
# Procedure, shortened: as §3
# K. pneumoniae MXX1232 = test: Antibacterial activity, MIC, resistant strain (Table 4); type: cell-based; conditions: Klebsiella pneumoniae, MXX1232; resistant K. pneumoniae MMX1232, multi-drug resistant clinical isolate; read-out: MIC, MMX1232
# Procedure, shortened: as §3
# A. baumannii MXX2240 = test: as above; type: cell-based; conditions: Acinetobacter baumannii, MXX2240; resistant A. baumannii MMX2240, multi-drug resistant clinical isolate; read-out: MIC, MMX2240
# Procedure, shortened: as §3
SMILES,MIC [1],MIC (E. coli LZ3111),MIC (E. coli 25922),MIC [2],MIC [3],MIC (E. coli ELZ4000),MIC (E. coli ELZ4251),MIC [4],MIC [5],MIC (K. pneumoniae MXX1232),MIC (A. baumannii MXX2240)
"CCc1c(-c2ccc3c(c2)cc(CN2C[C@H]4C[C@@H](N(C)Cc5ccccc5)C[C@H]4C2)n3C)[nH]c(=O)c(C(=O)O)c1O [Cpd 288, 6-(2-(((3aR,5r,6aS)-5-(benzyl(methyl)amino)hexahydrocyclopenta[c]pyrrol-2(1H)-yl)methyl)-1-methyl-1H-indol-5-yl)-5-ethyl-4-hydroxy-2-oxo-1,2-dihydropyridine-3-carboxylic acid]",12.5 to 150 µg/mL,12.5 to 150 µg/mL,1 to 3.5 µg/mL,< 1 µg/mL,3.5 to 12.5 µg/mL,12.5 to 150 µg/mL,12.5 to 150 µg/mL,,,,
"CCc1cc(C(=O)O)c(=O)[nH]c1-c1ccc2occc2c1 [Cpd 364, 6-(benzofuran-5-yl)-5-ethyl-2-oxo-1,2-dihydropyridine-3-carboxylic acid]",12.5 to 150 µg/mL,12.5 to 150 µg/mL,12.5 to 150 µg/mL,1 to 3.5 µg/mL,12.5 to 150 µg/mL,,12.5 to 150 µg/mL,12.5 to 150 µg/mL,12.5 to 150 µg/mL,12.5 to 150 µg/mL,12.5 to 150 µg/mL
"CCCCCNCc1cc2cc(-c3[nH]c(=O)c(C(=O)O)c(O)c3CC)ccc2n1C [Cpd 334, 5-ethyl-4-hydroxy-6-(1-methyl-2-((pentylamino)methyl)-1H-indol-5-yl)-2-oxo-1,2-dihydropyridine-3-carboxylic acid]",12.5 to 150 µg/mL,12.5 to 150 µg/mL,< 1 µg/mL,< 1 µg/mL,12.5 to 150 µg/mL,,12.5 to 150 µg/mL,1 to 3.5 µg/mL,1 to 3.5 µg/mL,12.5 to 150 µg/mL,12.5 to 150 µg/mL
"CCc1c(-c2ccc3c(c2)cc(CN(CC2CC2)C2CCNCC2)n3C)[nH]c(=O)c(C(=O)O)c1O [Cpd 264, 6-(2-(((cyclopropylmethyl)(piperidin-4-yl)amino)methyl)-1-methyl-1H-indol-5-yl)-5-ethyl-4-hydroxy-2-oxo-1,2-dihydropyridine-3-carboxylic acid]",12.5 to 150 µg/mL,1 to 3.5 µg/mL,3.5 to 12.5 µg/mL,1 to 3.5 µg/mL,3.5 to 12.5 µg/mL,12.5 to 150 µg/mL,3.5 to 12.5 µg/mL,,,,
"CCc1c(-c2ccc3c(c2)cc(CNC2CCCCC2)n3C)[nH]c(=O)c(C(=O)O)c1O.Cl [Cpd 241, 6-(2-((cyclohexylamino)methyl)-1-methyl-1H-indol-5-yl)-5-ethyl-4-hydroxy-2-oxo-1,2-dihydropyridine-3-carboxylic acid hydrochloride]",12.5 to 150 µg/mL,3.5 to 12.5 µg/mL,< 1 µg/mL,< 1 µg/mL,3.5 to 12.5 µg/mL,12.5 to 150 µg/mL,3.5 to 12.5 µg/mL,,,,
"CCCCCCNCc1cc2cc(-c3[nH]c(=O)c(C(=O)O)c(O)c3CC)ccc2n1C [Cpd 335, 5-ethyl-6-(2-((hexylamino)methyl)-1-methyl-1H-indol-5-yl)-4-hydroxy-2-oxo-1,2-dihydropyridine-3-carboxylic acid]",12.5 to 150 µg/mL,1 to 3.5 µg/mL,< 1 µg/mL,< 1 µg/mL,1 to 3.5 µg/mL,,12.5 to 150 µg/mL,1 to 3.5 µg/mL,3.5 to 12.5 µg/mL,12.5 to 150 µg/mL,12.5 to 150 µg/mL
"CCCCCCCCCNCc1cc2cc(-c3[nH]c(=O)c(C(=O)O)c(O)c3CC)ccc2n1C [Cpd 338, 5-ethyl-4-hydroxy-6-(1-methyl-2-((nonylamino)methyl)-1H-indol-5-yl)-2-oxo-1,2-dihydropyridine-3-carboxylic acid]",12.5 to 150 µg/mL,12.5 to 150 µg/mL,12.5 to 150 µg/mL,1 to 3.5 µg/mL,3.5 to 12.5 µg/mL,,12.5 to 150 µg/mL,12.5 to 150 µg/mL,12.5 to 150 µg/mL,12.5 to 150 µg/mL,12.5 to 150 µg/mL
"CCCCCCCNCc1cc2cc(-c3[nH]c(=O)c(C(=O)O)c(O)c3CC)ccc2n1C [Cpd 336, 5-ethyl-6-(2-((heptylamino)methyl)-1-methyl-1H-indol-5-yl)-4-hydroxy-2-oxo-1,2-dihydropyridine-3-carboxylic acid]",12.5 to 150 µg/mL,< 1 µg/mL,3.5 to 12.5 µg/mL,< 1 µg/mL,< 1 µg/mL,,12.5 to 150 µg/mL,12.5 to 150 µg/mL,12.5 to 150 µg/mL,12.5 to 150 µg/mL,12.5 to 150 µg/mL
"CCCCNCc1cc2cc(-c3[nH]c(=O)c(C(=O)O)c(O)c3CC)ccc2n1C [Cpd 333, 6-(2-((butylamino)methyl)-1-methyl-1H-indol-5-yl)-5-ethyl-4-hydroxy-2-oxo-1,2-dihydropyridine-3-carboxylic acid]",12.5 to 150 µg/mL,3.5 to 12.5 µg/mL,< 1 µg/mL,< 1 µg/mL,3.5 to 12.5 µg/mL,,12.5 to 150 µg/mL,< 1 µg/mL,< 1 µg/mL,12.5 to 150 µg/mL,1 to 3.5 µg/mL
"CCc1cc(C(=O)O)c(=O)[nH]c1-c1ccc2sccc2c1 [Cpd 366, 6-(benzo[b]thiophen-5-yl)-5-ethyl-2-oxo-1,2-dihydropyridine-3-carboxylic acid]",12.5 to 150 µg/mL,12.5 to 150 µg/mL,3.5 to 12.5 µg/mL,< 1 µg/mL,12.5 to 150 µg/mL,,12.5 to 150 µg/mL,12.5 to 150 µg/mL,12.5 to 150 µg/mL,12.5 to 150 µg/mL,12.5 to 150 µg/mL
"CCc1c(-c2ccc3occc3c2)[nH]c(=O)c(C(=O)O)c1O [Cpd 365, 6-(benzofuran-5-yl)-5-ethyl-4-hydroxy-2-oxo-1,2-dihydropyridine-3-carboxylic acid]",12.5 to 150 µg/mL,3.5 to 12.5 µg/mL,12.5 to 150 µg/mL,< 1 µg/mL,3.5 to 12.5 µg/mL,,3.5 to 12.5 µg/mL,12.5 to 150 µg/mL,12.5 to 150 µg/mL,12.5 to 150 µg/mL,1 to 3.5 µg/mL
"CCc1c(-c2ccc3sccc3c2)[nH]c(=O)c(C(=O)O)c1O [Cpd 367, 6-(benzo[b]thiophen-5-yl)-5-ethyl-4-hydroxy-2-oxo-1,2-dihydropyridine-3-carboxylic acid]",12.5 to 150 µg/mL,3.5 to 12.5 µg/mL,12.5 to 150 µg/mL,< 1 µg/mL,1 to 3.5 µg/mL,,12.5 to 150 µg/mL,12.5 to 150 µg/mL,12.5 to 150 µg/mL,12.5 to 150 µg/mL,3.5 to 12.5 µg/mL
"CCc1c(-c2ccc3c(c2)c(C#N)c(OC)n3C)[nH]c(=O)c(C(=O)O)c1O [Cpd 362, 6-(3-cyano-2-methoxy-1-methyl-1H-indol-5-yl)-5-ethyl-4-hydroxy-2-oxo-1,2-dihydropyridine-3-carboxylic acid]",12.5 to 150 µg/mL,12.5 to 150 µg/mL,12.5 to 150 µg/mL,1 to 3.5 µg/mL,3.5 to 12.5 µg/mL,,12.5 to 150 µg/mL,12.5 to 150 µg/mL,12.5 to 150 µg/mL,12.5 to 150 µg/mL,12.5 to 150 µg/mL
"CCCCCCCCNCc1cc2cc(-c3[nH]c(=O)c(C(=O)O)c(O)c3CC)ccc2n1C [Cpd 337, 5-ethyl-4-hydroxy-6-(1-methyl-2-((octylamino)methyl)-1H-indol-5-yl)-2-oxo-1,2-dihydropyridine-3-carboxylic acid]",12.5 to 150 µg/mL,3.5 to 12.5 µg/mL,12.5 to 150 µg/mL,< 1 µg/mL,1 to 3.5 µg/mL,,12.5 to 150 µg/mL,12.5 to 150 µg/mL,12.5 to 150 µg/mL,12.5 to 150 µg/mL,12.5 to 150 µg/mL
"Cc1c(-c2ccc3c(c2)cc(CNC(C)(C)C)n3C)[nH]c(=O)c(C(=O)O)c1O [Cpd 351, 6-(2-((tert-butylamino)methyl)-1-methyl-1H-indol-5-yl)-4-hydroxy-5-methyl-2-oxo-1,2-dihydropyridine-3-carboxylic acid]",12.5 to 150 µg/mL,3.5 to 12.5 µg/mL,1 to 3.5 µg/mL,< 1 µg/mL,12.5 to 150 µg/mL,,,1 to 3.5 µg/mL,< 1 µg/mL,12.5 to 150 µg/mL,1 to 3.5 µg/mL
"CCCN(C)C1Cc2cc3cc(-c4[nH]c(=O)c(C(=O)O)c(O)c4CC)ccc3n2C1 (centres unmarked) [Cpd 420, 5-ethyl-4-hydroxy-6-(2-(methyl(propyl)amino)-2,3-dihydro-1H-pyrrolo[1,2-a]indol-7-yl)-2-oxo-1,2-dihydropyridine-3-carboxylic acid]",12.5 to 150 µg/mL,3.5 to 12.5 µg/mL,3.5 to 12.5 µg/mL,< 1 µg/mL,3.5 to 12.5 µg/mL,,,12.5 to 150 µg/mL,12.5 to 150 µg/mL,12.5 to 150 µg/mL,3.5 to 12.5 µg/mL
"CCc1c(-c2ccc3c(ccn3-c3ccc(F)cc3)c2)[nH]c(=O)c(C(=O)O)c1O [Cpd 438, 5-ethyl-6-(1-(4-fluorophenyl)-1H-indol-5-yl)-4-hydroxy-2-oxo-1,2-dihydropyridine-3-carboxylic acid]",12.5 to 150 µg/mL,12.5 to 150 µg/mL,12.5 to 150 µg/mL,< 1 µg/mL,< 1 µg/mL,,,12.5 to 150 µg/mL,12.5 to 150 µg/mL,12.5 to 150 µg/mL,12.5 to 150 µg/mL
